Reference: patent US9724338B2, “Methods of using (+)-1,4-dihydro-7-[(3S,4S)-3-methoxy-4-(methylamino)-1-pyrrolidinyl]-4-OXO-1-(2-thiazolyl)-1,8-naphthyridine-3-carboxylic acid for treatment of antecedent hematologic disorders” (SUNESIS PHARMACEUTICALS, INC., priority 2007, dated 2017)

Assays:
[1] = system: MDS that had transformed to refractory CMML (progressed to AML); assay: Clinical study: treatment with SNS-595 of a patient with MDS transformed to refractory CMML (Example 2); format: in vivo, human; details: 72 mg/m^2 once per week for three weeks; for Peripheral Blasts: slow IV push
Procedure: A patient with MDS that had transformed to refractory CMML was enrolled in this study. The patient was diagnosed about 26 months prior to the study and was given 8 cycles of azacitadine (Vidaza®) about 10 months prior to the study. They were then treated with mitoxantrone+VP16 for 1 cycle, about 4 months prior to the study. […] The patient had initial marrow blast count of 39%. The following observations were noted on days 15 and 35.

[2] = system: advanced or refractory acute leukemias; assay: Clinical study: dose-escalating treatment of acute leukemia with SNS-595 (Example 4); format: in vivo, human
Excerpt: Minimum cycle length was 42 days for Arm A and 39 days for Arm B, respectively. Additional cycles were permitted if patients achieved stable disease or better. […] Pre- and post-dose bone marrow aspirates were obtained from a subset of patients to assess biomarkers.

[3] = Solubility of SNS-595 in compositions for injection or intravenous infusion (Example 1); format: physicochemical; details: Acidic compositions (<pH 4)
Excerpt: The resulting composition is also suitable for lyophilization. The lyophilized form is then reconstituted with sterile water to the appropriate concentration prior to use.

[4] = system: relapsed CMML (transformed to AML); assay: Clinical study: treatment with SNS-595 of a patient with relapsed CMML (Example 3); format: in vivo, human; details: 50 mg/m^2 twice a week; for Marrow blasts: slow IV push
Procedure: A patient with relapsed CMML (transformed to AML) was enrolled. The patient was diagnosed about 17 months prior to the study, was treated with 1 cycle of a Southwest Oncology Group (SWOG) regimen after diagnosis. They were given 4 cycles of azacitidine (Vidaza®) about 14 months prior to the study and 1 cycle of decitabine, about 6 months before the study.

[5] = Arm A, weekly x3, dose escalation to 90 mg/m^2

Drug-related G3 & 4 events: diarrhea ([2]; Arm A, weekly x3): 1 patient
Drug-related G3 & 4 events: stomatitis ([2]; Arm A, weekly x3): 3 patients
G3 mucositis ([2]; Arm B, twice weekly x2, 40 mg/m^2): two patients out of 11
Solubility [3]: increased solubility
Compound: CN[C@H]1CN(c2ccc3c(=O)c(C(=O)O)cn(-c4nccs4)c3n2)C[C@@H]1OC [SNS-595, (+)-1,4-dihydro-7-[(3S,4S)-3-methoxy-4-(methylamino)-1-pyrrolidinyl]-4-oxo-1-(2-thiazolyl)-1,8-naphthyridine-3-carboxylic acid]
Clinical outcome of treatment ([1]; one patient): clinical benefit with reduction in splenomegaly and blast counts
Ultimate disease status ([1]; one patient): progressive disease
White blood cell (WBC) count, earlier value ('was') ([1]; Around Day 35, before rise with Necrotizing fasciitis (NF) infection): 7000
Absolute neutrophil count (ANC) ([1]; Around Day 35): 3139
Peripheral Blasts ([1]; Around Day 35, one patient): 33%
White blood cell (WBC) count ([1]; Around Day 35, patient had Necrotizing fasciitis (NF) infection): 16000
Absolute neutrophil count (ANC) ([1]; Day 15): 94
White blood cell (WBC) count ([1]; Day 15): 600
Peripheral Blasts ([1]; Day 15, one patient): No blasts
Dose-limiting toxicity (DLT) ([2]; Arm A, 27 mg/m^2 weekly dose (also had progressive disease)): G4 myelosuppression
Complete Responses (CR) ([2]; Arm A, 50 mg/m^2 dose level): 1 patient
Dose-limiting toxicity (DLT) ([2]; Arm A, 50 mg/m^2 weekly dose): prolonged myelosuppression
Response of a patient with AML and splenomegaly ([2]; Arm A, 72 mg/m^2): clinical benefit with reduction in splenomegaly and blast counts
Dose-limiting toxicity (DLT) ([2]; Arm A, 72 mg/m^2 weekly dose): bowel obstruction
Clinical activity: reductions in marrow blasts to ≦5% ([2]; Arm A, doses at or above 50 mg/m^2): 5 patients
Non-dose-limiting toxicities (non-DLTs) [2, 5]: nausea/vomiting and diarrhea
Number of dose-limiting toxicities (DLTs) observed [2, 5]: Three
Clinical activity: reductions in marrow blasts to ≦5% ([2]; Arm B, 40 mg/m^2): 1 patient
Complete Responses (CR) ([2]; Arm B, 40 mg/m^2 level): 1 patient
Response of a patient with AML and splenomegaly ([2]; Arm B, 50 mg/m^2 dose level, patient had G3 mucositis): partial response
Dose-limiting toxicity (DLT) of Grade (G) 3 mucositis ([2]; Arm B, twice weekly x2, 50 mg/m^2 dose level): 3 patients
Tolerability in patients with advanced leukemias ([2]; Arms A and B): well-tolerated
Clinical outcome of treatment ([4]; one patient): clinical benefit (i.e. hematological improvement) with reduction in blast counts
Absolute neutrophil count (ANC) ([4]; At the time of undergoing treatment with third cycle): 1600
Marrow blasts ([4]; Post Cycle 1, baseline 20% blasts): 8%
Circulating blasts ([4]; Post Cycle 2): 4%
Marrow blasts ([4]; Post Cycle 2): 1%
Circulating blasts ([4]; Post Cycle 3): 8%
Circulating blasts ([4]; Post Cycle 4): 12%
